Results as given in US6495376B1, “Methods and compositions for regulating protein-protein interactions” (Beth Israel Deaconess Medical Center, priority 1999, dated 2002).

Columns and labels:
[1] = target: […] (Cdc25 Peptide, nonphosphorylated); experiment: GST-WW-domain incubated with peptide on a membrane, immunoblotting with GST antibody; type: binding
[…] (Pro-Rich) = Fluorescence anisotropy binding to fluorescein-labeled Pro-rich peptide; settings: GST-WW-domains; † estimated Kd, no plateau at 100 μM WW-domain
[2] = system: neurofibrillary tangles in AD brain sections; experiment: Binding of recombinant Pin1 added onto brain sections, immunostaining; design: species or system human; settings: Pin1 at 0.5 μM
Protocol: To further confirm that Pin1 has specific affinity for PHFs, recombinant Pin1 was added onto brain sections, washed, and then subjected to immunostaining using affinity purified Pin1 antibodies to localize bound Pin1. To localization exogenously added Pin1 in brain sections, 50 μm sections were cut from formalin fixed frontal cortex or hippocampus of human brains, endogenous peroxidase activity blocked with H2O2, followed by incubation with Pin1 at 0.5 μM. The sections were incubated with the mAb TG3 or anti-Pin1 antibodies that had been purified using GST-Pin1 glutathione beads, and visualized by the immunoperoxidase staining protocol, to detect endogenous Pin1, fixed brain sections were first microwaved in an antigen retrieval buffer (Biogenex), as described by the manufacturer, then subjected to immunostaining procedure.

peptide substrate = experiment: PPIase activity assay with peptide substrate; type: biochemical; settings: relative to wild-type protein defined as 100%

| Substance | Kd (μM) Cdc25 Peptide EQPLTPVTDL [1] | Kd (μM) Pro-Rich IPGTPPPNYD ([…] (Pro-Rich)) | binding in AD brain sections [2] | PPlase Activity (%) (peptide substrate) |
| --- | --- | --- | --- | --- |
| Pin1 WW-domain: N-terminal WW-domain (amino acids 1-54) of Pin1 (MADEEKLPPGWEKRMSRSSGRVYYFNHITNASQWERPSGNSSSGGKNGQGEPAR; left off: a dimerising Fc or GST) | N.B.* | N.B. |  |  |
| Pin1: wild-type human prolyl isomerase (PPIase) Pin1 with N-terminal WW-domain; tag cleaved in Table 2 |  |  | strongly bound neurofibrillary tangles and neurites | 100 |
